Source: patent publication US11154529B2, “Phosphaplatin liquid formulations” (Phosplatin Therapeutics Inc., priority 2016, dated 2021)

Assay: Reversal of PT-112 dimer formation by added pyrophosphate in 5 mg/mL aqueous PT-112 solution at ambient temperature
Type: physicochemical
Experimental: Evidence that added pyrophosphate reverses the formation of PT-112 dimer in aqueous formulations of PT-112 was shown in the following experiment. A 5 mg/mL aqueous solution of PT-112 was prepared by dissolving PT-112 in 10 mM potassium phosphate buffer containing added potassium hydroxide such that the final solution pH was ˜6.5. […] The decrease was not accompanied by the formation of the RRT 3.1-3.2 impurity; nor the formation of any new impurities, rather an increase in the concentration of PT-112 was observed.

## O=P1(O)OP(=O)(O)[O][Pt]2([NH][C@@H]3CCCC[C@H]3[NH]2)[O]1 (stereo partly drawn) [(R,R)-pyrodach-2, (R,R)-trans-1,2-cyclohexanediamine-(dihydrogenpyrophosphato)platinum(II)]
5 mg/mL in 10 mM potassium phosphate, pH ~6.5, about 24 hours at ambient temperature
  PT-112 dimer level: about 1.02%
Adjusted to ~pH 7.5 plus 0.5 eq. of pyrophosphate, after 9 days at ambient temperature
  PT-112 dimer level: effectively non-detectable level
Adjusted to ~pH 7.5 with potassium hydroxide, 7 day period at ambient temperature, no pyrophosphate
  PT-112 dimer concentration: progressively decrease
In the API
  PT-112 dimer level: about 0.33%
